Assay results taken from US20070186301A1, “Mutant BDNF gene introducing knockin mouse” (NATIONAL INSTITUTE OF ADVANCED INDUSTRIAL SCIENCE AND …, priority 2006, published 2007).
Entries after “also recorded” stand apart in the source; their conditions may differ.

Experiments:
[1] = test system: mutant BDNF gene-knockin mice; test: Open field (circular field) quantity of activity after etizolam, mutant mice; assay type: in vivo, mouse; conditions: mutant mice aged 4 to 5 weeks; etizolam solution 0.5 mg/kg intraperitoneally; measured from 5 minutes after administration; p<0.001
Method: (§1) The abnormal behavior in the mutant BDNF gene-knockin mouse was quantitatively analyzed. An emotional change of the mouse is reflected to the quantity of activity and a behavioral pattern of the mouse when the mouse is placed in a novel environment. The mouse was placed in the novel environment which was an inexperienced circular field (a diameter of 50 cm and a wall height of 40 cm in the field) for 25 to 30 minutes, and the quantity of activity in the meantime was compared between the wild type homozygous mice (wild) and the knockin homozygous mice (mutants). The mouse was placed 30 minutes before the experiment in a room in which the circular field had been disposed, and placed calmly in the circular field using a paper box. The activity of the mouse in the circular field was measured by recording using DV-Track video tracking system supplied from Muromachi Kikai.
(§2) Etizolam is a short term action type GABA, a neurotransmission accelerator (reference: Elder C. A. et al.: Drug Metab. Dispos., vol. 23, 776, 1995). […] A protocol was comprising (I) measuring the total quantity of activity in the mouse for 30 minutes after being placed in the open field, (II) intraperitoneally administering PBS or the etizolam solution (0.5 mg/kg) and (III) returning the mouse in the open field after 5 minutes and measuring the quantity of activity for 30 minutes in the mouse. […]

wild type mice = test: Open field (circular field) quantity of activity after etizolam, wild type mice; assay type: in vivo, mouse; conditions: wild type mice aged 4 to 5 weeks; etizolam solution 0.5 mg/kg intraperitoneally; measured from 5 minutes after administration; p<0.05
Method: as §1, §2

cholinergic nerve cells = test: Harmful action of non-cleavable proBDNF derivative on cholinergic nerve cells; assay type: cell-based
[2] = test system: cerebellar granular nerve cells; test: Harmful action of non-cleavable proBDNF derivative on cerebellar granular nerve cells; assay type: cell-based

Row | Molecule | effect on abnormal behavior (total behavioral distance / quantity of activity for 30 minutes in the open field) [1] | effect on quantity of activity for 30 minutes in the open field (wild type mice) | action on fibers in cholinergic nerve cells (cholinergic nerve cells) | action on cell death of cerebellar granular nerve cells [2]
1 | CCc1cc2c(s1)-n1c(C)nnc1CN=C2c1ccccc1Cl [etizolam] | inhibitory effect; also recorded: remarkably inhibited | certainly effective |  | 
2 | BDNF-ML: non-cleavable human proBDNF derivative protein with R125M and R127L, SEQ ID NO:2 (protein, Non-cleavable human proBDNF mutant) MTILFLTMVISYFGCMKAAPMKEANIRGQGGLAYPGVRTHGTLESVNGPKAGSRGLTSLADTFEHVIEELLDEDQKVRPNEENNKDADLYTSRVMLSSQVPLEPPLLFLLEEYKNYLDAANMSMMVLRHSDPARRGELSVCDSISEWVTAADKKTAVDMSGGTVTVLEKVPVSKGQLKQYFYETKCNPMGYTKEGCRGIDKRHWNSQCRTTQSYVRALTMDSKKRIGWRFIRIDTSCVCTLTIKRGR |  |  | facilitation of dropout of fibers | facilitation of cell death
